Experimental data published in PubChem BioAssay AID2801 (Sanford-Burnham Center for Chemical Genomics, 2010).

System: TNFa-induced NF-kB reporter cells, inhibition
Test: analog potency on TNFa NF-kB signaling – cell-based, set 3, SAR follow-up (AID 2801)

IC50: 13 µM
Structure (SMILES): CCCCn1c(SCC(=O)Nc2nnc(CC)s2)nc2c1c(=O)n(C)c(=O)n2C
